The results in this text go back to patent US7074789B2, “Kinase inhibitors” (Amgen Inc., priority 1999, dated 2006).

Type in all cases: biochemical
One experiment concerns the target T1, Lck (Homo sapiens, UniProt P06239).
T1 construct: Kinases are expressed as either kinase domains or full length constructs; made in house
As to the kind of experiment: Kinase inhibition assay (33P transfer), Lck. The conditions noted are these: Table 3, class symbols; read-out: Lck-1. In a few lines:
(§1)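 Liquid scintillation counting of 33P on plate-bound synthetic substrates gives kinase activity. Plates are washed in 0.5% phosphoric acid first; kinases are tagged recombinant proteins from E. coli or baculovirus-infected High Five cells.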

For another experiment, the target named is T2, Zap-70 (Homo sapiens, UniProt P43403).
T2 construct: Kinases are expressed as either kinase domains or full length constructs; made in house
T2 sequence (P43403 1-619): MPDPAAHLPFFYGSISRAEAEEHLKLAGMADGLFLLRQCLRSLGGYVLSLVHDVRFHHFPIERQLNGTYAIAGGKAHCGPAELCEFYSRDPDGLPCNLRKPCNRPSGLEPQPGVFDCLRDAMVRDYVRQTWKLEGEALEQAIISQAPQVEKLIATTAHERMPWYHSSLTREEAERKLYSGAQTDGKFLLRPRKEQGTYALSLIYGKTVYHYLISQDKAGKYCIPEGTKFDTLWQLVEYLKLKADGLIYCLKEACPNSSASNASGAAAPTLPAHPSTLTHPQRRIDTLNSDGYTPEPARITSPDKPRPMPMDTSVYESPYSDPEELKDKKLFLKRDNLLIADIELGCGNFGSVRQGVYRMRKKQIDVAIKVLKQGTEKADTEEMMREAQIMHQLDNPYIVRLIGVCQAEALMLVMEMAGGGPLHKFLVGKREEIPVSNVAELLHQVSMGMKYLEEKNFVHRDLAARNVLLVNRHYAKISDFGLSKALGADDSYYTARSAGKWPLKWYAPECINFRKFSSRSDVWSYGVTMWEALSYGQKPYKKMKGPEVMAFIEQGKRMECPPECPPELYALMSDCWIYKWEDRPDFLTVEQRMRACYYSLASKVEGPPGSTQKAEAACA
As to the kind of experiment: Kinase inhibition assay (33P transfer), Zap-70. The conditions noted are these: Table 3, class symbols; read-out: Zap-1. In a few lines:
as §1

The target of another experiment is T3, Itk (Homo sapiens, UniProt Q08881).
T3 construct: Kinases are expressed as either kinase domains or full length constructs; made in house
T3 sequence (Q08881 1-620): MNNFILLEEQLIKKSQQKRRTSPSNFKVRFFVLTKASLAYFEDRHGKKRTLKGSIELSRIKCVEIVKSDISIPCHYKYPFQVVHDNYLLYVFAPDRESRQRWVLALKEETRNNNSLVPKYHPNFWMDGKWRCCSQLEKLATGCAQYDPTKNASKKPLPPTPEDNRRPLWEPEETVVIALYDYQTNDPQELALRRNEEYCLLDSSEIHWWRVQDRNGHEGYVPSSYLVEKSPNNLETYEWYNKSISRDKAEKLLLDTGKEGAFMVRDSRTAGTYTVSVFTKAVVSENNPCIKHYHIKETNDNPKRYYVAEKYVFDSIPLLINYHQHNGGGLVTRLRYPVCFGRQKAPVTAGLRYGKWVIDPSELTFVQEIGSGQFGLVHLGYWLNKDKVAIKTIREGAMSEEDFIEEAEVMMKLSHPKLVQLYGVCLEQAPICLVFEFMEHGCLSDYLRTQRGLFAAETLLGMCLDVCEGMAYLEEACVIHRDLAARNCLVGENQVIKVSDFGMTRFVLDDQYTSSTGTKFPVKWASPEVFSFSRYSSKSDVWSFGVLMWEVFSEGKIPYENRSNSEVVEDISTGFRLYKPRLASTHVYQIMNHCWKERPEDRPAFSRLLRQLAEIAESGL
The experiment in a line: Kinase inhibition assay (33P transfer), Itk. The conditions noted are these: Table 3, class symbols; read-out: Itk-1. In a few lines: (§2)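 Steps: coat wells with poly(Glu,Tyr) 4:1 or poly(Arg,Ser) 3:1; add purified kinase, [33P]ATP and inhibitor; incubate; wash with 0.5% phosphoric acid; add liquid scintillant; count. IC50 corresponds to half-maximal reduction of bound 33P.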

For a further experiment, the target named is T4, EGFR (Homo sapiens, UniProt P00533).
T4 construct: Kinases are expressed as either kinase domains or full length constructs; made in house
As to the kind of experiment: Kinase inhibition assay (33P transfer), EGFR. The conditions noted are these: Table 2, class symbols A-E; read-out: EGFR-1. In a few lines:
as §2

For a further experiment, the target named is T5, ErbB2 (Homo sapiens, UniProt P04626).
T5 construct: Kinases are expressed as either kinase domains or full length constructs; made in house
T5 sequence (P04626 23-1255, species assumed): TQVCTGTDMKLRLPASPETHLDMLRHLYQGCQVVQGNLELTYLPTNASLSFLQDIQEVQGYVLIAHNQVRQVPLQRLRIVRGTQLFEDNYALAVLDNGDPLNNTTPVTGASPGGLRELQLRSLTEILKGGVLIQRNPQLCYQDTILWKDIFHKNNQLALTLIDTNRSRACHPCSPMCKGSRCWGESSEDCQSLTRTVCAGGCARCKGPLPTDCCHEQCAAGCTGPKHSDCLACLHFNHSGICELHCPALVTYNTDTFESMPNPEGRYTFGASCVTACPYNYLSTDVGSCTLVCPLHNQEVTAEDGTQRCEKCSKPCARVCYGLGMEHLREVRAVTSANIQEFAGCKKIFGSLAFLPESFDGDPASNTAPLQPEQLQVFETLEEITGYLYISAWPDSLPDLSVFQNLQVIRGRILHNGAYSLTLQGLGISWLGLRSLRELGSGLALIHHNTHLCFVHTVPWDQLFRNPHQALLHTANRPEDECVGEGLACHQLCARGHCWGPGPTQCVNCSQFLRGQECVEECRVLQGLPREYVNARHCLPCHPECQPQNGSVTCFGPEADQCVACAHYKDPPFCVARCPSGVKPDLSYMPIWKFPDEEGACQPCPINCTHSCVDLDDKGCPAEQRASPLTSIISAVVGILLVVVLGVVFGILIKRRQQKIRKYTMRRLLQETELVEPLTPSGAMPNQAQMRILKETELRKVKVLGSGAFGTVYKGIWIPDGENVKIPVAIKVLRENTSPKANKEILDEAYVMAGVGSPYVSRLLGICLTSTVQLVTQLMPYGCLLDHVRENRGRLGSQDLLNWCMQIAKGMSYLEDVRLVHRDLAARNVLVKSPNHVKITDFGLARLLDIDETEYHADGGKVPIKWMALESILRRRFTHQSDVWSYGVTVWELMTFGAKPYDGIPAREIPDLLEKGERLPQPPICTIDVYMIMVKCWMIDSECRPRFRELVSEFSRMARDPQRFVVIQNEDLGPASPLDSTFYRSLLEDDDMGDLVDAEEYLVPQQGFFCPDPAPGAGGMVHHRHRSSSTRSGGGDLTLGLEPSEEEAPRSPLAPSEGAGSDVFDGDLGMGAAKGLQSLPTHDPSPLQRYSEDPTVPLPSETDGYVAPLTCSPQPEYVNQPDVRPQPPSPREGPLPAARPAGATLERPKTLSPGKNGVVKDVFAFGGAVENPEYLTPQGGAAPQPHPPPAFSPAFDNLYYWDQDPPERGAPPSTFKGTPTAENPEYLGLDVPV
The experiment in a line: Kinase inhibition assay (33P transfer), ErbB2. Conditions: read-out: ErbB2-2. In a few lines:
as §2

In a further experiment the target is T6, Kdr (Homo sapiens, UniProt P35968).
T6 construct: Kinases are expressed as either kinase domains or full length constructs; made in house
T6 sequence (P35968 20-1356, species assumed): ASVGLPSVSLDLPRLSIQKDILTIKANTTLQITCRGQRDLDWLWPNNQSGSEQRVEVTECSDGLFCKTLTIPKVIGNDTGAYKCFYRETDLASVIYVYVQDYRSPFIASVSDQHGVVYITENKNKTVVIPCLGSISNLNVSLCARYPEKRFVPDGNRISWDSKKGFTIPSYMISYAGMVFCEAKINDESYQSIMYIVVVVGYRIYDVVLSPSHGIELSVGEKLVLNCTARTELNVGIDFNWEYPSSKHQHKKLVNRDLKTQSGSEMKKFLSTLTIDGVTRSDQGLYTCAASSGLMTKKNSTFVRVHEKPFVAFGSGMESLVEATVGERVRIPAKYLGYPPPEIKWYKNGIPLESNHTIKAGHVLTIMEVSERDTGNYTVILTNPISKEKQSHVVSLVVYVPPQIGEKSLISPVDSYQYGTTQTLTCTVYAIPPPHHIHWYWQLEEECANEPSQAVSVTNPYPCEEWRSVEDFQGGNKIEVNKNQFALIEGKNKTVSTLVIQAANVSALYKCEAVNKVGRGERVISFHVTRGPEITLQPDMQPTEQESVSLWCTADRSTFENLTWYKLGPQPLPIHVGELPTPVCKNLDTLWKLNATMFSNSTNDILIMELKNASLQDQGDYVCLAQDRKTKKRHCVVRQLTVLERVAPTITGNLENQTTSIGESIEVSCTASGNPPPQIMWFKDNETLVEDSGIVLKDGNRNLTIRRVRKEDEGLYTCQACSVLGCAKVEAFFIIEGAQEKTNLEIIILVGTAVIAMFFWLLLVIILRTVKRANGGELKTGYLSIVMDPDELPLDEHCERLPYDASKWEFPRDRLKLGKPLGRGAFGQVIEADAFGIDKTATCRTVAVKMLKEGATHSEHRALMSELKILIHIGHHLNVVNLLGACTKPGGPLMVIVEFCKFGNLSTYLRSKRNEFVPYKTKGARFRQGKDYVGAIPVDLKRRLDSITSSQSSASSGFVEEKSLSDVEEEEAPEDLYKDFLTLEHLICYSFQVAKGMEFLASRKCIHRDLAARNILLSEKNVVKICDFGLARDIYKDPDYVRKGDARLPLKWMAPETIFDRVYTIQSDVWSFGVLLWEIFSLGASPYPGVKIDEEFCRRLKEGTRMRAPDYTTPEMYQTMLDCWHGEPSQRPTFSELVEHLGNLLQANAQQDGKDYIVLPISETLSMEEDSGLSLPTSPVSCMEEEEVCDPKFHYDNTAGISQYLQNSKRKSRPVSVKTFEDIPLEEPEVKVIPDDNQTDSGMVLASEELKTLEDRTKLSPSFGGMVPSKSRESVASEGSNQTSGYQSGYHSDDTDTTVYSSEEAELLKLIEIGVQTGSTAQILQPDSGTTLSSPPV
The experiment in a line: Kinase inhibition assay (33P transfer), Kdr. The conditions noted are these: Table 3, class symbols; read-out: KDR-1. In a few lines: as §1

The target in the next experiment is T7, c-Met (Homo sapiens, UniProt P08581).
T7 construct: Kinases are expressed as either kinase domains or full length constructs; made in house
The experiment in a line: Kinase inhibition assay (33P transfer), c-Met. Conditions: Table 2, class symbols A-E; read-out: Met-1. In a few lines:
as §2

The target in a further experiment is T8, AKT (Homo sapiens, UniProt Q9Y243).
T8 construct: Kinases are expressed as either kinase domains or full length constructs; made in house
The experiment in a line: Kinase inhibition assay (33P transfer), AKT. Conditions: Table 2, class symbols A-E; read-out: AKT3-1. In a few lines:
as §1

Another experiment addresses T9, IGFR-1 (Homo sapiens, UniProt P08069).
T9 construct: Kinases are expressed as either kinase domains or full length constructs; made in house
The experiment in a line: Kinase inhibition assay (33P transfer), IGFR-1. Conditions: Table 2, class symbols A-E.

Another experiment concerns the target T10, PDGFRB (Homo sapiens, UniProt P09619).
T10 construct: Kinases are expressed as either kinase domains or full length constructs; made in house
The experiment in a line: Kinase inhibition assay (33P transfer), PDGFRB. Conditions: read-out: PDGFRB-1.

T9 sequence (P08069 31-1367): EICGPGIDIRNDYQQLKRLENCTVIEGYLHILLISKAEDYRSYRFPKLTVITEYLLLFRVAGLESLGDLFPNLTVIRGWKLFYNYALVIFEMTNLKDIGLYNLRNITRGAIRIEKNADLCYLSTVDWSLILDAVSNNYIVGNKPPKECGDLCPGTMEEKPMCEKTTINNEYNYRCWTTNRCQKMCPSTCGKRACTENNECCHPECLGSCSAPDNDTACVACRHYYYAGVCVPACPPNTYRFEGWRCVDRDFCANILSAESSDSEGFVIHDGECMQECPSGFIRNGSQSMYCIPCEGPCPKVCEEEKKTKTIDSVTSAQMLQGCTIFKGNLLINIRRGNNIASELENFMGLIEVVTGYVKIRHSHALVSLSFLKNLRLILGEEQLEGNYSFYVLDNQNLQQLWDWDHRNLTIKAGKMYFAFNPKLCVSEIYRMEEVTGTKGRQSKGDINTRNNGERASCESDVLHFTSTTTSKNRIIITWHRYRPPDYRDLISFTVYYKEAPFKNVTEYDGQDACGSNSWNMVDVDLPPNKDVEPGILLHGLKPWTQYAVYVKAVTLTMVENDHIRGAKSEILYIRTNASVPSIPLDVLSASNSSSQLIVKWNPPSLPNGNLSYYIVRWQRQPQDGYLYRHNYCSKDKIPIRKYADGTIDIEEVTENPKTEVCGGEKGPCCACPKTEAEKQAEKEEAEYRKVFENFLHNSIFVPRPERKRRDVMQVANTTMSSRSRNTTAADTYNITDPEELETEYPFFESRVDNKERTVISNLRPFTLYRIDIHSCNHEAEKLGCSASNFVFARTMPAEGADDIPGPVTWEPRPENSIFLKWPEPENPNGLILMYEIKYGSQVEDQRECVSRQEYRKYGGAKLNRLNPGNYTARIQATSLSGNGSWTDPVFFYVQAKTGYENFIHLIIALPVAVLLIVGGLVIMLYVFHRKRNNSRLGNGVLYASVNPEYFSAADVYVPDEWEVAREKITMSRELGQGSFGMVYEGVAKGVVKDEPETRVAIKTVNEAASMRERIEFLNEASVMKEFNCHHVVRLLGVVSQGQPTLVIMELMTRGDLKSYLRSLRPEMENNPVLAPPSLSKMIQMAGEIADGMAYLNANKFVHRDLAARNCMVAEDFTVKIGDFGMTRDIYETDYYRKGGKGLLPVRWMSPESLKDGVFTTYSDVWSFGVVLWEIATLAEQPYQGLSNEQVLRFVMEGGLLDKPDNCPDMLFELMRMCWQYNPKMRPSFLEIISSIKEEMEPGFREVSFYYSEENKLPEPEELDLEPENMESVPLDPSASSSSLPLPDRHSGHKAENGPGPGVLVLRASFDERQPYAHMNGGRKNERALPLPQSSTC
T10 sequence (P09619 33-1106, species assumed): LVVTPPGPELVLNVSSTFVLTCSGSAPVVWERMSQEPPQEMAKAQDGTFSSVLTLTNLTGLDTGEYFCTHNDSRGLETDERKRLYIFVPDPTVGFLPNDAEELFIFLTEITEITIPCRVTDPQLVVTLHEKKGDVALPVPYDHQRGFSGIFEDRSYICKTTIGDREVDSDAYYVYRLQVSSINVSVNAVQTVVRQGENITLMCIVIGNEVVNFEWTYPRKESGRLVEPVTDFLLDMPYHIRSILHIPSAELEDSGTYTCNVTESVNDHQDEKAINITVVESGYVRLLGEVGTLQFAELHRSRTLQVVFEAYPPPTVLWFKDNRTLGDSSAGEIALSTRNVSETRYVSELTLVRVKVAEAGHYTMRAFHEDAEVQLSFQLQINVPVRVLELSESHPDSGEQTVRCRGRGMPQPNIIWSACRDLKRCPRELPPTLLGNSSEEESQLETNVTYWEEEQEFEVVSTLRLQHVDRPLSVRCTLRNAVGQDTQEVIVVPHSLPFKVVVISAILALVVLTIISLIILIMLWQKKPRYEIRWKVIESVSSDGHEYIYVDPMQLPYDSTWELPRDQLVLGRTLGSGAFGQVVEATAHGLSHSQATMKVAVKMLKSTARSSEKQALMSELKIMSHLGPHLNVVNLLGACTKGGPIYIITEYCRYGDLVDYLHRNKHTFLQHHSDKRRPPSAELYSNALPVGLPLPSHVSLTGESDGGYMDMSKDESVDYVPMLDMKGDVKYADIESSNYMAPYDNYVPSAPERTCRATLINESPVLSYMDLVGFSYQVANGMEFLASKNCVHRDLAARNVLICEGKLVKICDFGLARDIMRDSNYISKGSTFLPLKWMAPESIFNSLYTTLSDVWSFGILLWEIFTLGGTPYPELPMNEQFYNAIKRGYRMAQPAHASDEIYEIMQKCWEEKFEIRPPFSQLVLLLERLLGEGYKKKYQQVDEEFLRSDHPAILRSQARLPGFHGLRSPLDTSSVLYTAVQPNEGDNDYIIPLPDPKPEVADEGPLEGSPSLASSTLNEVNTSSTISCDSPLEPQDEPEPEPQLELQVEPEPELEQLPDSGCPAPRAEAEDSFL

As for `COc1cc(Nc2ncnc(Nc3cc(Cl)c(NC(=O)c4ccccc4)cc3C)n2)cc(OC)c1OC` [Compound 633], the IC50 at Lck is 0.768 to 4.61 µM; at Zap-70 it was more than 8.64 µM; on Itk it was more than 8.64 µM; on EGFR, 0.768 to 4.61 µM; at ErbB2 it was 0.768 to 4.61 µM; at Kdr, 6.72 to 8.64 µM. Moreover, the IC50 at c-Met was more than 8.64 µM; at AKT, more than 8.64 µM; on IGFR-1 it was more than 8.64 µM; at PDGFRB, 4.61 to 6.72 µM.
Turning to `CCN(c1ncnc(Nc2cc(OC)c(OC)c(OC)c2)n1)c1cccc2ccccc12` [Compound 634], the IC50 on Lck was 0.927 to 5.56 µM; on Zap-70, more than 10.4 µM; at Itk, more than 10.4 µM; on EGFR it was less than 0.927 µM; at ErbB2, 0.927 to 5.56 µM; on Kdr, less than 0.927 µM. Further, the IC50 was 5.56 to 8.11 µM on c-Met, 8.11 to 10.4 µM at AKT, more than 10.4 µM against IGFR-1 and 8.11 to 10.4 µM on PDGFRB.
In the case of `Cc1ccc2c(c1)CCCN2c1ncnc(Nc2cccc(Cc3nnn[nH]3)c2)n1` [Compound 635], the IC50 is 6.01 to 8.76 µM on Lck; 8.76 to 11.3 µM at Zap-70; more than 11.3 µM on Itk; less than 1 µM at EGFR; less than 1 µM at ErbB2; less than 1 µM at Kdr. In addition, the IC50 at c-Met was less than 1 µM; at AKT, more than 11.3 µM; on IGFR-1, more than 11.3 µM; on PDGFRB, 1 to 6.01 µM.
Take `COc1cc(Nc2ncnc(Nc3ccc(OCCO)cc3)n2)cc(OC)c1OC` [Compound 636]: the IC50 at Lck was less than 0.968 µM; at Zap-70 it was more than 10.9 µM; at Itk, more than 10.9 µM; on EGFR, 0.968 to 5.81 µM; on ErbB2, 0.968 to 5.81 µM; at Kdr, less than 0.968 µM. The IC50 at c-Met was more than 10.9 µM; at AKT, more than 10.9 µM; against IGFR-1, more than 10.9 µM; on PDGFRB, less than 0.968 µM.
As to `COc1cc(Nc2ncnc(N(CCO)c3ccccc3)n2)cc(OC)c1OC` [Compound 637], the IC50 was 1.01 to 6.04 µM at Lck; more than 11.3 µM at Zap-70; more than 11.3 µM on Itk; less than 1.01 µM at EGFR; 6.04 to 8.81 µM at ErbB2; 1.01 to 6.04 µM at Kdr. Moreover, the IC50 at c-Met is 6.04 to 8.81 µM; on AKT, more than 11.3 µM; on IGFR-1, more than 11.3 µM; at PDGFRB it was 6.04 to 8.81 µM.
As for `Cc1ccc(Cl)cc1Nc1ncnc(Nc2cc(Cl)ccc2C)n1` [Compound 638], the IC50 was more than 12.5 µM at Lck; more than 12.5 µM on Zap-70; more than 12.5 µM on Itk; less than 1.11 µM on EGFR; 9.72 to 12.5 µM on ErbB2; 9.72 to 12.5 µM at Kdr. Also, the IC50 at c-Met was more than 12.5 µM; on AKT, more than 12.5 µM; on IGFR-1, 9.72 to 12.5 µM; at PDGFRB it was 1.11 to 6.66 µM.
Consider `COc1cc(Nc2ncnc(N3CCCc4cc(Cl)ccc43)n2)cc(OC)c1OC` [Compound 639], for which the IC50 was 0.935 to 5.61 µM at Lck; more than 10.5 µM at Zap-70; more than 10.5 µM at Itk; less than 0.935 µM on EGFR; 5.61 to 8.18 µM on ErbB2; less than 0.935 µM on Kdr. The IC50 at c-Met was less than 0.935 µM; on AKT, more than 10.5 µM; at IGFR-1 it was more than 10.5 µM; at PDGFRB, less than 0.935 µM.
In the case of `COc1cc(Nc2ncnc(N3CCCc4c(Cl)cccc43)n2)cc(OC)c1OC` [Compound 643], the IC50 was more than 10.5 µM on Lck; more than 10.5 µM at Zap-70; more than 10.5 µM at Itk; less than 0.935 µM on EGFR; 0.935 to 5.61 µM on ErbB2; 0.935 to 5.61 µM on Kdr. Also, the IC50 on c-Met was 0.935 to 5.61 µM; on AKT, more than 10.5 µM; on IGFR-1 it was more than 10.5 µM; at PDGFRB, less than 0.935 µM.
Regarding `Cc1ccc(Cl)cc1Nc1ncnc(N2c3ccc(F)cc3CCC2C)n1` (stereo not shown) [Compound 644], the IC50 on Lck was more than 11.7 µM; on Zap-70, more than 11.7 µM; at Itk, 9.12 to 11.7 µM; at EGFR, 1.04 to 6.25 µM; on ErbB2, more than 11.7 µM; at Kdr, 1.04 to 6.25 µM. For the same compound, the IC50 on c-Met is 1.04 to 6.25 µM; on AKT it was more than 11.7 µM; at IGFR-1, more than 11.7 µM; on PDGFRB, 1.04 to 6.25 µM.
For the compound `COc1cc(Nc2ncnc(N3CCCc4ccc(Cl)cc43)n2)cc(OC)c1OC` [Compound 645], the IC50 is more than 10.5 µM at Lck; more than 10.5 µM at Zap-70; more than 10.5 µM on Itk; less than 0.935 µM at EGFR; less than 0.935 µM at ErbB2; more than 10.5 µM on Kdr. Besides, the IC50 at c-Met, on AKT, at IGFR-1 and on PDGFRB was more than 10.5 µM each time.
As to `CN(c1ccc2c(cnn2Cc2ccccc2)c1)c1ncnc(Nc2cccc(Br)c2)n1` [Compound 667], the IC50 is more than 9.25 µM at Lck; more than 9.25 µM on Zap-70; more than 9.25 µM on Itk; less than 0.822 µM on EGFR; 0.822 to 4.93 µM on ErbB2; more than 9.25 µM at Kdr. Besides, the IC50 is 7.2 to 9.25 µM at c-Met, more than 9.25 µM on AKT, more than 9.25 µM against IGFR-1 and more than 9.25 µM at PDGFRB.
In the case of `Cc1cccc(Nc2ncnc(N(C)c3ccc4c(cnn4Cc4ccccc4)c3)n2)c1` [Compound 668], the IC50 at Lck is 5.69 to 8.3 µM; on Zap-70, more than 10.7 µM; on Itk, more than 10.7 µM; on EGFR, less than 0.949 µM; on ErbB2, less than 0.949 µM; at Kdr, 5.69 to 8.3 µM. The IC50 at c-Met is 5.69 to 8.3 µM; at AKT it was more than 10.7 µM; on IGFR-1 it was more than 10.7 µM; on PDGFRB, 8.3 to 10.7 µM.
As for `COc1ccc(Nc2ncnc(N(C)c3ccc4c(cnn4Cc4ccccc4)c3)n2)cc1OC` [Compound 669], the IC50 at Lck was 0.856 to 5.13 µM; at Zap-70, more than 9.62 µM; at Itk it was more than 9.62 µM; at EGFR, less than 0.856 µM; at ErbB2 it was less than 0.856 µM; at Kdr it was 0.856 to 5.13 µM. The IC50 was 7.49 to 9.62 µM on c-Met, more than 9.62 µM on AKT, more than 9.62 µM on IGFR-1 and 0.856 to 5.13 µM at PDGFRB.
On to `COc1ccc(Nc2ncnc(NCc3ccc(C)c(Cl)c3)n2)cc1OC` [Compound 793], for which the IC50 at Lck, at Zap-70, at Itk, on EGFR, at Kdr and on c-Met was more than 11.7 µM in each case. Also, the IC50 on AKT, against IGFR-1 and at PDGFRB was more than 11.7 µM throughout.
